Literature values as cited in patent US20240058331A1, “COMBINATION THERAPIES FOR TREATMENT OF CIRRHOSIS WITH PORTAL HYPERTENSION” (priority 2022, published 2024).

How the values were obtained:
[1] = sedation for HVPG assessment
ETB = target: T1, ETB (Homo sapiens, UniProt P24530); settings: up to 50 mM
T1 sequence (P24530 27-442): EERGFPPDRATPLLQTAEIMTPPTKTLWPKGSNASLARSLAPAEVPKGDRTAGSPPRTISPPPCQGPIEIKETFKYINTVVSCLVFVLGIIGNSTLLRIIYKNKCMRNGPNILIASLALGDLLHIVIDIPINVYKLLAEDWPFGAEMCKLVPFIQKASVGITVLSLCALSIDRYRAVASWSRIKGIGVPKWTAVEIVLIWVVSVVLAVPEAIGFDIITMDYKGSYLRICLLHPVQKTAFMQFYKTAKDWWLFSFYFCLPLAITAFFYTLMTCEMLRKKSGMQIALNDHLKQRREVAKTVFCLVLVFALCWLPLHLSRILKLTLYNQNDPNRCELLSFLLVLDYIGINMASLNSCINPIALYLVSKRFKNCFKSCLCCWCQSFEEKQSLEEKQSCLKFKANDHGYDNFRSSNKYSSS

[2] = unlikely to be clinically relevant with standard midazolam dosing
[3] = moderate hepatic impairment vs healthy control participants; expected

## CCOc1ccc(Cc2cc([C@@H]3O[C@H](CO)[C@@H](O)[C@H](O)[C@H]3O)ccc2Cl)cc1 [Dapagliflozin]
10 mg once daily, chronic kidney disease (DAPA-CKD) and heart failure (DAPA HF) populations
  safety or tolerability signals in participants with renal impairment: did not lead to any unique safety or tolerability signals
Doses up to 100 mg for 14 days
  tolerability in healthy volunteers: tolerable

## Cc1ncc2n1-c1ccc(Cl)cc1C(c1ccccc1F)=NC2 [Midazolam]
[1]
  influence on HVPG: does not influence HVPG

## COc1nc(C)cnc1NS(=O)(=O)c1cccnc1-c1ccc(-c2nnco2)cc1 [Zibotentan]
ETB
  effect at the ETB: no effect
[2]
  increase in midazolam exposure: 20%
[3]
  exposure, times higher in participants with moderate hepatic impairment compared to healthy control participants: 1.45 times
